Measured values published in patent US20240090503A1, “FUNGICIDAL OXADIAZOLES AND THEIR MIXTURES” (FMC CORPORATION, priority 2020, published 2024).
Marks after values point to notes of the source that are not given here.

Legend:
Assay type in all cases: in vivo
[1] = tested on: Puccinia recondita f. sp. tritici (the causal agent of wheat leaf rust); assay: Test C: preventive spray on wheat seedlings, wheat leaf rust, visual disease rating; conditions: wheat seedlings
In short: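 Wheat seedlings sprayed to run-off with compound in acetone/water (50/50) with 250 ppm PEG400, then inoculated with spores the following day. After 24 h saturated humidity at 20° C. and 6 days in growth chamber at 20° C., disease rated visually as % control relative to untreated controls.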

[2] = tested on: Zymoseptoria tritici (the causal agent of wheat leaf blotch); assay: Test B: preventive spray on wheat seedlings, wheat leaf blotch, visual disease rating; conditions: wheat seedlings
Text: General protocol for preparing test suspensions for Tests A-D: the test compounds were first dissolved in acetone in an amount equal to 3% of the final volume and then suspended at the desired concentration (in ppm) in acetone and purified water (50/50 mix by volume) containing 250 ppm of the surfactant PEG400 (polyhydric alcohol esters). The resulting test suspensions were then used in Tests A-D.
The test suspension was sprayed to the point of run-off on wheat seedlings. The following day the seedlings were inoculated with a spore suspension of Zymoseptoria tritici (the causal agent of wheat leaf blotch) and incubated in a saturated atmosphere at 24° C. for 48 h, and then moved to a growth chamber at 20° C. for 17 days, after which time visual disease ratings were made.
The test results for Tests A-C presented in Table A below for compounds of Formula 1 illustrate the fungicidal activity of component (a) contributing to the plant disease control utility of compositions comprising component (a) in combination with component (b) according to the present invention. In the Table, a rating of 100 indicates 100% disease control and a rating of 0 indicates no disease control (relative to the controls). A dash (-) indicates the compound was not tested. The test suspensions were sprayed at the concentration listed in the column “Rate in ppm”, unless otherwise indicated. An asterisk “*” next to the rating indicates a 250 ppm test suspension was used, a double asterisk “**” next to the rating indicates a 100 ppm test suspension was used, and a triple asterisk “***” next to the rating indicates a 50 ppm test suspension was used.

[3] = tested on: Phakopsora pachyrhizi (the causal agent of Asian soybean rust); assay: Test A: preventive spray on soybean seedlings, Asian soybean rust, visual disease rating; conditions: soybean seedlings
In short: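 Preventive test: soybean seedlings received a run-off spray of compound suspended at the set ppm in 50/50 acetone/water plus 250 ppm PEG400, and one day later a P. pachyrhizi spore inoculum. Visual scoring (0 none to 100 full disease control) followed 24 h saturated incubation and 8 days' growth chamber, both at 22° C.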

[4] = test suspension 10 ppm, 100 = 100% disease control, 0 = no control
[5] = 10 ppm test suspension, 100 = 100% disease control, 0 = no control

Row | Structure (SMILES) | Test B disease control rating ([2]; test suspension 250 ppm) | Test C disease control rating ([1]; test suspension 10 ppm) | Test A disease control rating [3, 4] | other results
1 | O=S1(=O)CCCCN1Cc1ccc(-c2noc(C(F)(F)F)n2)cc1 [compound 321] | 99* % | – | – | Test C disease control rating ([1]; test suspension 250 ppm): 100%; Test A disease control rating ([3]; test suspension 250 ppm): 100%
2 | CCOC(=O)c1c2ccccc2nn1Cc1ccc(-c2noc(C(F)(F)F)n2)cc1 [compound 123] | – | – | – | Test C disease control rating ([1]; test suspension 255 ppm): 99%; Test B disease control rating ([2]; test suspension 255 ppm): 21%; Test A disease control rating ([3]; test suspension 255 ppm): 100%
3 | COC(=O)c1cc(COc2ccc(-c3noc(C(F)(F)F)n3)cc2)on1 [compound 312] | 0* % | 0% | 0% | –
4 | N#Cc1nn(Cc2ccc(-c3noc(C(F)(F)F)n3)s2)cc1Br [compound 76] | – | – | – | Test C disease control rating ([1]; test suspension 270 ppm): 99%; Test B disease control rating ([2]; test suspension 270 ppm): 41%; Test A disease control rating ([3]; test suspension 270 ppm): 100%
5 | COC(=O)c1ccc(Cn2cc(-c3noc(C(F)(F)F)n3)cn2)cc1 [compound 311] | 0* % | – | – | Test C disease control rating ([1]; test suspension 50 ppm): 0%; Test A disease control rating ([3]; test suspension 50 ppm): 0%
6 | CCOC(=O)C1=NOC(Cc2ccc(-c3noc(C(F)(F)F)n3)cc2)C1 (stereo not shown) [compound 29] | 94* % | 19% | 73% | –
7 | COCCNC(=O)c1coc(Cc2ccc(-c3noc(C(F)(F)F)n3)cc2)c1 [compound 292] | 96* % | 85% | 100% | –
8 | FC(F)(F)c1nc(-c2ccc(CNC3CC3)s2)no1 [compound 191] | 96* % | – | – | Test C disease control rating ([1]; test suspension 50 ppm): 100%; Test A disease control rating ([3]; test suspension 50 ppm): 100%
9 | O=C(NCC(F)(F)F)c1cnn(COc2ccc(-c3noc(C(F)(F)F)n3)cc2)c1 [compound 212] | 79* % | 100% | 100% | –
10 | COCCNC(=O)c1csc(Cc2ccc(-c3noc(C(F)(F)F)n3)cc2)c1 [compound 287] | 98* % | 100% | 100% | –
11 | NC(=O)c1csc(Cc2ccc(-c3noc(C(F)(F)F)n3)cc2)n1 [compound 343] | 97* % | 100% | 100% | –
12 | N#CCNC(=O)c1coc(Cc2ccc(-c3noc(C(F)(F)F)n3)cc2)c1 [compound 294] | 50* % | 79% | 100% | –
13 | O=C(NCC1CC1(F)F)c1coc(Cc2ccc(-c3noc(C(F)(F)F)n3)cc2)n1 (stereo not shown) [compound 226] | 94* % | 100% | 100% | –
14 | CC(C)OC(=O)c1cnn(Cc2ccc(-c3noc(C(F)(F)F)n3)cc2)c1 [compound 58] | – | 100% | 100% | Test B disease control rating ([2]; test suspension 100 ppm (** next to rating)): 83** %
15 | FC(F)(F)c1nc(-c2ccc(Cn3ncc4ncccc43)cc2)no1 [compound 408] | – | – | – | Test C disease control rating [1, 5]: 100%; Test A disease control rating [3, 5]: 100%
16 | COCCNC(=O)c1nn(Cc2ccc(-c3noc(C(F)(F)F)n3)cc2)c2ccccc12 [compound 46] | – | 100% | 100% | –
17 | CN(C)C(=O)c1cnn(CCCc2ccc(-c3noc(C(F)(F)F)n3)cc2)c1 [compound 406] | – | – | – | Test C disease control rating [1, 5]: 93%; Test A disease control rating [3, 5]: 100%
18 | CCCOC(=O)c1cnn(C(C)c2ccc(-c3noc(C(F)(F)F)n3)s2)c1 (stereo not shown) [compound 493] | – | – | – | Test C disease control rating [1, 5]: 100%; Test A disease control rating [3, 5]: 100%
19 | N#Cc1ccc2nn(Cc3ccc(-c4noc(C(F)(F)F)n4)cc3)cc2c1 [compound 108] | – | – | – | Test C disease control rating ([1]; test suspension 50 ppm): 100%; Test A disease control rating ([3]; test suspension 50 ppm): 100%
